Columns and labels:
[1] = Acute toxicity in ip dosed Syrian golden hamster assessed as lethal dose; assay type: organism-based, Mesocricetus auratus; conditions: in vivo
[2] = Drug concentration in athymic Nu/Nu mouse tumor xenografted with human HCT-116 cells transfected with luciferase at 20 mg/kg, ip administered daily for 10 days by HPLC analysis; assay type: ADME, organism-based, Neoplasm; conditions: time 10 day, read-out: Drug uptake
[3] = Cmax in mouse at 3 mg/kg, po measured after 2 hrs by LC-MS/MS analysis; assay type: ADME, organism-based; set-up: dose 3 mg/kg, time 2 hrs, route po; conditions: in vivo
[4] = Oral bioavailability in Sprague-Dawley rat at 10 mg/kg measured upto 72 hrs; assay type: ADME, organism-based; conditions: in vivo
[5] = Drug concentration in athymic Nu/Nu mouse plasma xenografted with human HCT-116 cells transfected with luciferase at 5 mg/kg, ip administered daily for 10 days by HPLC analysis; assay type: ADME, organism-based; conditions: time 10 day, read-out: Drug uptake
[6] = Acute toxicity in ip dosed Swiss albino mouse assessed as lethal dose; assay type: organism-based; conditions: in vivo
[7] = Drug concentration in athymic Nu/Nu mouse plasma xenografted with human HCT-116 cells transfected with luciferase at 20 mg/kg, ip administered daily for 10 days by HPLC analysis; assay type: ADME, organism-based; conditions: time 10 day, read-out: Drug uptake
[8] = Acute toxicity in ip dosed rat assessed as lethal dose; assay type: organism-based; conditions: in vivo
[9] = Acute toxicity in iv dosed Swiss albino mouse assessed as lethal dose; assay type: organism-based; conditions: in vivo
[10] = Drug concentration in athymic Nu/Nu mouse tumor xenografted with human HCT-116 cells transfected with luciferase at 5 mg/kg, ip administered daily for 10 days by HPLC analysis; assay type: ADME, organism-based, Neoplasm; conditions: time 10 day, read-out: Drug uptake
[11] = Oral bioavailability in Sprague-Dawley rat at 30 mg/kg measured upto 72 hrs; assay type: ADME, organism-based; conditions: in vivo
[12] = Oral bioavailability in Sprague-Dawley rat at 50 mg/kg measured upto 72 hrs; assay type: ADME, organism-based; conditions: in vivo

Work on `COC(=O)C[C@H]1[C@]2(C)C3=C(C)[C@H](c4ccoc4)C[C@H]3O[C@@H]2[C@@H]2OC(=O)[C@]3(C)C=CC(=O)[C@@]1(C)[C@@H]23` [NIMBOLIDE] yielded an LD50 [1] of 500 mg/kg, a concentration at 240 h [2] of 868 ng/g and a Cmax [3] of 780 nM. For the same molecule, the bioavailability [4] was 2.72%, the concentration at 240 h [5] was 222 ng/mL and the LD50 [6] was 225 mg/kg. The concentration at 240 h [7] was 409 ng/mL, the LD50 [8] was 600 mg/kg and the LD50 [9] was 24 mg/kg. For the same molecule, the concentration at 240 h [10] was 345 ng/g, the bioavailability [11] was 1.76% and the bioavailability [12] was 3.06%.

From ChEMBL document CHEMBL5233272, “Nimbolide, a Neem Limonoid, Is a Promising Candidate for the Anticancer Drug Arsenal” (J Med Chem, 2021)
